Laboratory results published in ChEMBL document CHEMBL1201862, “PubChem BioAssay data set” (2004).
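The compound was tested at five concentrations on cells cultured in 96-well plates, with a 48-hour exposure period. GI50: concentration for 50% inhibition of growth.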 Activity calls are given as the source filed them. Cut-off read from the data, not from the text of the source: active = GI50 up to about 1.1 µM and inactive = higher.

Experiments:
Experiment in all cases: growth of human tumour cells (NCI), 48 h
SK-MEL-2 = system: SK-MEL-2
DMS-114 = system: DMS-114
SK-MEL-5 = system: SK-MEL-5
NCI-H522 = system: NCI-H522
HOP-62 = system: HOP-62
OVCAR-4 = system: OVCAR-4
MOLT-4 = system: MOLT-4
HOP-92 = system: HOP-92
CCRF-CEM = system: CCRF-CEM
SNB-19 = system: SNB-19
RPMI-8226 = system: RPMI-8226
TK-10 = system: TK-10
A498 = system: A498
HCT-116 = system: HCT-116
SNB-75 = system: SNB-75
HT-29 = system: HT-29
SF-295 = system: SF-295

Measured: GI50

O=C1OC2C=CC1C1(CCOC1=O)C2 (stereo unspecified)
inactive: SK-MEL-2 > 100 µM | DMS-114 > 100 µM | SK-MEL-5 > 100 µM | NCI-H522 > 100 µM | HOP-62 > 100 µM | OVCAR-4 > 100 µM | MOLT-4 > 100 µM | HOP-92 > 100 µM | CCRF-CEM > 100 µM | SNB-19 > 100 µM | RPMI-8226 > 100 µM | TK-10 > 100 µM | A498 > 100 µM | HCT-116 > 100 µM | SNB-75 46.8 µM

CO[C@@H]1C=C[C@@]23c4cc5c(cc4C(=O)O[C@H]2CN(C)[C@H]3C1)OCO5
inactive: HT-29 > 100 µM | SK-MEL-2 > 100 µM | DMS-114 > 100 µM | SK-MEL-5 > 100 µM | NCI-H522 > 100 µM | OVCAR-4 > 100 µM | MOLT-4 > 100 µM | SF-295 > 100 µM | HOP-92 > 100 µM | CCRF-CEM > 100 µM | SNB-19 > 100 µM | RPMI-8226 > 100 µM | TK-10 > 100 µM | A498 > 100 µM | HCT-116 > 100 µM | SNB-75 81.7 µM

COC(=O)/C(=N\N)C(C(=O)C(=O)Nc1nnc(S)[nH]1)c1nc2ccc([N+](=O)[O-])cc2nc1O (stereo unspecified)
inactive: HT-29 > 100 µM | SK-MEL-2 > 100 µM | DMS-114 > 100 µM | SK-MEL-5 > 100 µM | NCI-H522 > 100 µM | HOP-62 > 100 µM | OVCAR-4 > 100 µM | MOLT-4 > 100 µM | SF-295 > 100 µM | HOP-92 > 100 µM | CCRF-CEM > 100 µM | SNB-19 > 100 µM | RPMI-8226 > 100 µM | TK-10 > 100 µM | A498 > 100 µM | HCT-116 > 100 µM | SNB-75 > 100 µM

COc1ccccc1/C=C(\NC(=O)c1ccccc1)c1nc2ccc(Cl)cc2[nH]1
inactive: HT-29 30.8 µM | SK-MEL-2 25.6 µM | DMS-114 17.2 µM | SK-MEL-5 17.3 µM | NCI-H522 15.6 µM | OVCAR-4 22.9 µM | MOLT-4 15.2 µM | HOP-92 22.7 µM | CCRF-CEM 21.7 µM | SNB-19 29.5 µM | RPMI-8226 9.64 µM | TK-10 29.2 µM | A498 25.4 µM | HCT-116 29 µM | SNB-75 22.4 µM

CC1/C=C/[C@@]2(C)CCC(C(C)(C)O)C2C(O)C[C@](C)(O)/C=C/C1 (stereo partly specified)
inactive: HT-29 > 100 µM | SK-MEL-2 > 100 µM | DMS-114 > 100 µM | SK-MEL-5 > 100 µM | HOP-62 > 100 µM | OVCAR-4 > 100 µM | MOLT-4 > 100 µM | SF-295 > 100 µM | HOP-92 > 100 µM | CCRF-CEM > 100 µM | SNB-19 > 100 µM | RPMI-8226 > 100 µM | TK-10 > 100 µM | A498 > 100 µM | HCT-116 > 100 µM | SNB-75 > 100 µM

C[N+](C)(C)CC(=O)N/N=C(/Cc1nc2ccc(Cl)cc2nc1O)C1=NS(=O)(=O)c2cc(S(N)(=O)=O)c(Cl)cc2N1
inactive: HT-29 > 100 µM | SK-MEL-2 > 100 µM | DMS-114 > 100 µM | SK-MEL-5 > 100 µM | NCI-H522 > 100 µM | HOP-62 > 100 µM | OVCAR-4 > 100 µM | MOLT-4 > 100 µM | SF-295 > 100 µM | CCRF-CEM > 100 µM | SNB-19 > 100 µM | RPMI-8226 > 100 µM | TK-10 > 100 µM | A498 > 100 µM | HCT-116 > 100 µM

COc1ccccc1OCC(COC(=O)Nc1ccc(C)cc1)OC(=O)Nc1ccc(C)cc1 (stereo unspecified)
inactive: HT-29 19.2 µM | SK-MEL-2 13.8 µM | DMS-114 14.7 µM | SK-MEL-5 20.7 µM | NCI-H522 16.1 µM | HOP-62 38.5 µM | MOLT-4 18.9 µM | SF-295 21.9 µM | HOP-92 7.59 µM | CCRF-CEM 18.2 µM | SNB-19 18.7 µM | RPMI-8226 16.3 µM | TK-10 18.4 µM | A498 > 100 µM | HCT-116 17.5 µM | SNB-75 23 µM

O=C(N/N=C(/c1nc2ccc([N+](=O)[O-])cc2[nH]c1=O)C(O)c1ccc([N+](=O)[O-])cc1)c1ccncc1 (stereo unspecified)
inactive: HT-29 > 100 µM | SK-MEL-2 > 100 µM | DMS-114 13.4 µM | SK-MEL-5 36.3 µM | NCI-H522 6.64 µM | HOP-62 69.7 µM | OVCAR-4 > 100 µM | MOLT-4 > 100 µM | SF-295 > 100 µM | HOP-92 > 100 µM | CCRF-CEM 16.3 µM | RPMI-8226 > 100 µM | TK-10 > 100 µM | A498 > 100 µM | HCT-116 > 100 µM | SNB-75 > 100 µM
